Assay results: PMC11994314, “Binding mode between peptidyl-tRNA hydrolase and the peptidyl-A76 moiety of the substrate” (The Journal of Biological Chemistry, 2025)

B1: C-terminal 16-amino acid deletion mutant of Thermus thermophilus HB8 peptidyl-tRNA hydrolase (ΔC16 TtPth) (domain or fragment, UniProt Q5SHZ2 1-167, looked up)
chain: MFLVVGQGNPGERYARTRHNLGFMVLDRLGLSFRPRGEALVAEAEGGLFLKPLTYYNLTGRAVAPLARFYKIPPERILVVHDEMDLPLGRIRFKAGGSAAGNRGVLSIEEALGTRAFHRLRLGIGKPPDPSRGAEYVLSPFREEELPVVERVLEAAKEAVWCWVREG
notes: Peptidyl-tRNA hydrolase (Pth, Pth1 type) of Thermus thermophilus HB8, lacking the C-terminal 16 amino acid residues (the C-terminal α-helix); the construct ends with Arg165-Glu166-Gly167; The His-tag was removed with thrombin; also called TtPth⋅tripeptide; C-terminal α-helix (C-terminal 16 amino acid residues) deletion mutant; source: E. coli BL21(DE3), purified (Ni-chelating column, thrombin …)

What was measured:
[1] = molecular target: T1, TtPth (Thermus thermophilus peptidyl-tRNA hydrolase) (Thermus thermophilus, UniProt Q5SHZ2); assay: X-ray crystal structure (co-crystallisation), […] Å; assay type: binding; conditions: 40 mM AMP in reservoir, MES pH 5.8, 20 °C; active site cleft, acidic pocket, A76 mimic
T1 construct: gene pth; wild type, full length (183 residues inferred from deletion of C-terminal 16 leaving Gly167 as last residue); monomer; wild type for crystals expressed and purified as described previously
T1 sequence (Q5SHZ2 whole entry): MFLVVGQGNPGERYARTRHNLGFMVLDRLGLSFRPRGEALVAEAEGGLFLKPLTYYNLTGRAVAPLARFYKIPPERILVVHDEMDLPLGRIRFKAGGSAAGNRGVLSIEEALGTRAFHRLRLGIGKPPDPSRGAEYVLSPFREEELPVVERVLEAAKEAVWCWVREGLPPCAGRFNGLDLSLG

[2] = molecular target: the molecule itself; assay: crystal structure; crystals of ΔC16 TtPth (13 mg/ml, with 20 mM 3′-(N-acetyl-L-alanyl)amino-3′-deoxyadenosine, which was not seen in the density); 0.5 M (NH4)2SO4, 0.1 M Tris-HCl pH 7.5, 30% PEG600, 10% glycerol, 20 °C; contact between crystallographically related molecules, 2.10 Å

Molecule | X-ray crystal structure (co-crystallisation), 1.60 Å [1] | binding result [2]
Nc1ncnc2c1ncn2[C@@H]1O[C@H](COP(=O)(O)O)[C@@H](O)[C@H]1O [adenosine 5′-monophosphate] | The structure of TtPth⋅AMP revealed that AMP is bound to an acidic pocket | 
B1 |  | binds
